Measurements taken from paper PMC11402785, “Structural basis for activity switching in polymerases determining the fate of let-7 pre-miRNAs” (Nature Structural & Molecular Biology, 2024).
Values belong to the molecule of their own block, whether it stands above or below them.

How the values were obtained:
[1] = molecular target: T1, TUT7 (Homo sapiens, UniProt Q5VYS8); test: in vitro uridylation of labelled pre-let-7g, denaturing PAGE; type: biochemical; details: pre-let-7g RNA co-substrate, no LIN28A, 0.5 mM UTP, 5 mM MgCl2, 50 µM ZnCl2, pH 7.8, 37 °C
T1 construct: full-length wild type 1-1495; TEV-cleavable N-terminal His6-GST tag, C-terminal twin Strep tag; E. coli KRX
T1 sequence (Q5VYS8 1-1495): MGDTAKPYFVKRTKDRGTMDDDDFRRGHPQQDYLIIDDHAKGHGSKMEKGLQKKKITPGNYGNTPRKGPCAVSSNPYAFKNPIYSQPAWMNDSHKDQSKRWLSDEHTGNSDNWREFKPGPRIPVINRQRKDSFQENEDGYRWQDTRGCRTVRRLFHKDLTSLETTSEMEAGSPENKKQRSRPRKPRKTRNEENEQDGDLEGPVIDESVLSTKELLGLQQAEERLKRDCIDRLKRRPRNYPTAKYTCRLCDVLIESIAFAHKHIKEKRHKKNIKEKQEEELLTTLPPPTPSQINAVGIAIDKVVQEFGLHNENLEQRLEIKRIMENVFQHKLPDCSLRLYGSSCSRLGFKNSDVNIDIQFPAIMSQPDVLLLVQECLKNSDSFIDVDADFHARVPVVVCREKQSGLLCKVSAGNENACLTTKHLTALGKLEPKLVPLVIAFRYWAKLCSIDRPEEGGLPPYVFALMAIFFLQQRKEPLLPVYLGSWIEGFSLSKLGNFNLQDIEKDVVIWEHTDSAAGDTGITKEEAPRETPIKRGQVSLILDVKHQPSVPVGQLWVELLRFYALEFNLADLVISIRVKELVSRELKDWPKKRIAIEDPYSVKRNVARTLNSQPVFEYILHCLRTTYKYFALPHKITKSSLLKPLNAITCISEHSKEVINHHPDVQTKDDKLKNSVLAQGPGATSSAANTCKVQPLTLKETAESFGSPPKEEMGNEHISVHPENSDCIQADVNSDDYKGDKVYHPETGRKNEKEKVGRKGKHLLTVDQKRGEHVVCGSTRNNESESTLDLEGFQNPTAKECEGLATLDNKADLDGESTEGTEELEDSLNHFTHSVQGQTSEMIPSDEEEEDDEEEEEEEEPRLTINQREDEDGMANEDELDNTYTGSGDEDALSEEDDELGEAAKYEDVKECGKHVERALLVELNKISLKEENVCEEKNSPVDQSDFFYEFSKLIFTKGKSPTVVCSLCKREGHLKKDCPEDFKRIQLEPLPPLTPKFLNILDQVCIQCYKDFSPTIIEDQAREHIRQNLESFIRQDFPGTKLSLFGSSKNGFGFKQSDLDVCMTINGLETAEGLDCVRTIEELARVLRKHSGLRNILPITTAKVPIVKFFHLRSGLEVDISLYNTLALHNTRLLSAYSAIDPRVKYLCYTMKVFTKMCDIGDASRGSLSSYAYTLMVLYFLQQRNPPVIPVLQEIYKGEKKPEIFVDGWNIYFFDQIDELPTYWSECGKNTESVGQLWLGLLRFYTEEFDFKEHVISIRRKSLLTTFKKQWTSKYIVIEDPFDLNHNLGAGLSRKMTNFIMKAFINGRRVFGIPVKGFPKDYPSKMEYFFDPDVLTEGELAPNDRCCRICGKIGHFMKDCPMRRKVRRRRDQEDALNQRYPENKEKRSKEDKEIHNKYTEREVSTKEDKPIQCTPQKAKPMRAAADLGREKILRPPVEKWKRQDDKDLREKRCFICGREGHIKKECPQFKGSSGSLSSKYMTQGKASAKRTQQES

[2] = molecular target: T1, TUT7; test: cryo-EM structure, […] Å; type: binding; details: pre-let-7g, 2 mM CaCl2, 0.5 mM UTPαS, pH 7.8; catalytic pocket of the CM (active site)
[3] = molecular target: T2, human terminal uridylyltransferase 7 (TUT7), full length (1-1495) (human, UniProt Q5VYS8 1-1495); test: cryo-EM structure; ternary complexes of TUT7 or TUT4 with pre-let-7g RNA and LIN28A mixed at a molar ratio of 1:1.5:2, overnight on ice with 0.5 mM UTPalphaS, 2 mM DTT, 2 mM CaCl2, then SEC in 20 mM HEPES pH 7.8, 100 mM NaCl; details: both partners purified
T2 construct: TUT7 (ZCCHC6), human, residues 1-1495, wild type, synthesised gene; The His6-GST tag is cleavable by tobacco etch virus protease; Unmodified (not PEGylated) enzyme was used for the complexes; also called ZCCHC6; source: E. coli KRX, purified (Strep-XT 4Flow beads, Heparin column, size-exclusion chromatography)
T2 sequence (looked up): T1 sequence (Q5VYS8 1-1495)

[4] = molecular target: T3, TUT7 (ZCCHC6) (Homo sapiens, UniProt Q5VYS8 1-1495); test: cryo-EM; UTPalphaS; binary complex, 3.55 A; EMSA: 20 mM HEPES pH 7.8, 100 mM NaCl, 2 mM CaCl2, 50 uM ZnCl2, 5% glycerol, 5 mM DTT, 0.5 mM UTP, RNase inhibitor, on ice 30 min; 0.1 uM RNA, 0.2 uM TUT, 0.3 uM LIN28A; native gel in 1x TBE at 4 C; details: protein: recombinant; tags: N-term His6-GST (TEV cleavable), C-term twin-Strep; hairpin, 1 nt 3' overhang
T3 sequence: T1 sequence (Q5VYS8 1-1495)

Molecule: O=c1ccn([C@@H]2O[C@H](COP(=O)(O)OP(=O)(O)OP(=O)(O)O)[C@@H](O)[C@H]2O)c(=O)[nH]1 [UTP]
in vitro uridylation of labelled pre-let-7g, denaturing PAGE [1]: In vitro activity assays for TUT7 showing mono-uridylation activity in the absence of LIN28A

Molecule: O=c1ccn([C@@H]2O[C@H](COP(O)(=S)OP(=O)(O)OP(=O)(O)O)[C@@H](O)[C@H]2O)c(=O)[nH]1 (stereo partly shown) [UTPαS]
cryo-EM structure, 3.55 Å [2]: UTPαS bound and stabilized by the critical residues; F1045, S1047, Q1124, L1126, N1130

binding result [3]: binds
B1: human LIN28A (natural protein)
chain: MGSVSNQQFAGGCAKAAEEAPEEAPEDAARAADEPQLLHGAGICKWFNVRMGFGFLSMTARAGVALDPPVDVFVHQSKLHMEGFRSLKEGEAVEFTFKKSAKGLESIRVTGPGGVFCIGSERRPKGKSMQKRRSKGDRCYNCGGLDHHAKECKLPPQPKKCHFCQSISHMVASCPLKAQQGPSAQGKPTYFREEEEEIHSPTLLPEAQN
notes: LIN28A, human, synthesised gene; Expressed as an N-terminal His6-GST fusion; removal of the tag is not described; The phrase 'full-length wild-type human TUT7 and human LIN28A' may or may not mean that LIN28A was full length; Only the ZK domain is resolved in the maps

B2: pre-let-7g (structured_RNA)
RNA: UGAGGUAGUAGUUUGUACAGUUUGAGGGUCUAUGAUACCACCCGGUACAGGAGAUAACUGUACAGGCCACUGCCUUGC
binding result [4]: binds
